Assays:
HLA-A*0202 = HLA-A*0202 (Homo sapiens, UniProt P04439, D140Y/D185E/D98H/E176V/E277Q/G131W/G231S/I119L/I121R/I166T/I218V/L180W/L300P/L318F/N151K/N90K/P208A/P217A/Q67R/Q86G/Q94H/R138H/R169H/T345S); experiment: Purified HLA class I peptide binding assay, A*0202; settings: binding affinity, A2 supermotif peptides and analogs
HLA-A*0203 = HLA-A*0203 (Homo sapiens, UniProt P04439, A173T/D140Y/D185E/D98H/E277Q/G131W/G231S/I119V/I121R/I166T/I218V/L180W/L300P/L318F/N151K/N90K/P208A/P217A/Q86G/Q94H/R138H/R169H/T345S); experiment: Purified HLA class I peptide binding assay, A*0203; settings: binding affinity, A2 supermotif peptides and analogs
HLA-A*0206 = HLA-A*0206 (Homo sapiens, UniProt P04439, D140Y/D185E/D98H/E176V/E277Q/F33Y/G131W/G231S/I119V/I121R/I166T/I218V/L300P/L318F/N151K/N90K/P208A/P217A/Q86G/Q94H/R138H/R169H/T345S); experiment: Purified HLA class I peptide binding assay, A*0206; settings: binding affinity, A2 supermotif peptides and analogs
HLA-A*6802 = HLA-A*6802 (Homo sapiens, UniProt P04439, A269V/D140Y/D185E/E176V/E277Q/E87N/F33Y/G231S/I121R/I166T/I218V/L180W/L300P/L318F/N151K/P208A/P217A/Q86R/R138H/R169H/S129P/T345S/V36M); experiment: Purified HLA class I peptide binding assay, A*6802; settings: binding affinity, A2 supermotif peptides and analogs
[1] = tested on: peptide-specific CTL from PBMC; experiment: CTL immunogenicity of A3, B7 supermotif and A1, A24 motif peptides (methodology analogous to A2); format: cell-based, human; settings: positive/tested
Description: HLA-A3 supermotif-bearing cross-reactive binding peptides are also evaluated for immunogenicity using methodology analogous for that used to evaluate the immunogenicity of the HLA-A2 supermotif peptides.
Analogous methodology, as appreciated by one of ordinary skill in the art, is employed to determine immunogenicity of peptides bearing HLA class I motifs and/or supermotifs set out herein.

HLA-A*0201 = HLA-A*0201 (Homo sapiens, UniProt P04439, D140Y/D185E/D98H/E176V/E277Q/G131W/G231S/I119V/I121R/I166T/I218V/L300P/L318F/N151K/N90K/P208A/P217A/Q86G/Q94H/R138H/R169H/T345S); experiment: Purified HLA class I peptide binding assay, A*0201; settings: binding affinity, A2 supermotif peptides and analogs
[2] = tested on: 0.221A2.1 cell line (peptide-loaded target); experiment: Primary CTL induction from normal donor PBMC, 51Cr release on peptide-pulsed targets; format: cell-based, human; settings: number of donors positive over the total number of donors tested
Description: (§1) The melanoma cells were treated with 100 U/ml IFNγ (Genzyme) for 48 hours at 37° C. before use as targets in the ^51Cr release and in situ IFNγ assays.
The monocytes were purified by plating 10×10^6 PBMC/well in a 6-well plate. After 2 hours at 37° C., the non-adherent cells were removed by gently shaking the plates and aspirating the supernatants. The wells were washed a total of three times with 3 ml RPMI to remove most of the non-adherent and loosely adherent cells. Three ml of complete medium containing 50 ng/ml of GM-CSF and 1,000 U/ml of IL4 were then added to each well. DC were used for CTL induction cultures following 7 days of culture.
Induction of CTL with DC and Peptide: CD8+ T-cells were isolated by positive selection with Dynal immunomagnetic beads (Dynabeads® M-450) and the detacha-bead® reagent. Typically about 200-250×10^6 PBMC were processed to obtain 24×10^6 CD8^+ T-cells (enough for a 48-well plate culture). Briefly, the PBMCs were thawed in RPMI with 30 μg/ml DNAse, washed once with PBS containing 1% human AB serum and resuspended in PBS/1% AB serum at a concentration of 20×10^6 cells/ml. The magnetic beads were washed 3 times with PBS/AB serum, added to the cells (140 μl beads/20×10^6 cells) and incubated for 1 hour at 4° C. with continuous mixing. The beads and cells were washed 4× with PBS/AB serum to remove the nonadherent cells and resuspended at 100×10^6 cells/ml (based on the original cell number) in PBS/AB serum containing 100 μ/ml detacha-bead® reagent and 30 μg/ml DNAse. The mixture is incubated for 1 hour at room temperature with continuous mixing. The beads were washed again with PBS/AB/DNAse to collect the CD8+ T-cells. The DC were collected and centrifuged at 1300 rpm for 5-7 minutes, washed once with PBS with 1% BSA, counted and pulsed with 40 μg/ml of peptide at a cell concentration of 1-2×10^6/ml in the presence of 3 μg/ml β2- microglobulin for 4 hours at 20° C. The DC were then irradiated (4,200 rads), washed 1 time with medium and counted again.
Setting up induction cultures: 0.25 ml cytokine-generated DC (@1×10^5 cells/ml) were co-cultured with 0.25 ml of CD8+ T-cells (@2×10^6 cell/ml) in each well of a 48-well plate in the presence of 10 ng/ml of IL-7. rHuman IL10 was added the next day at a final concentration of 10 ng/ml and rhuman IL2 was added 48 hours later at 10 IU/ml.
Restimulation of the induction cultures with peptide-pulsed adherent cells: Seven and fourteen days after the primary induction the cells were restimulated with peptide-pulsed adherent cells. The PBMCS were thawed and washed twice with RPMI and DNAse. The cells were resuspended at 5×10^6 cells/ml and irradiated at ˜4200 rads. The PBMCs were plated at 2×10^6 in 0.5 ml complete medium per well and incubated for 2 hours at 37° C. The plates were washed twice with RPMI by tapping the plate gently to remove the nonadherent cells and the adherent cells pulsed with 10 μg/ml of peptide in the presence of 3 μg/ml β2 microglobulin in 0.25 ml RPMI/5% AB per well for 2 hours at 37° C. Peptide solution from each well was aspirated and the wells were washed once with RPMI. Most of the media was aspirated from the induction cultures (CD8+ cells) and brought to 0.5 ml with fresh media. The cells were then transferred to the wells containing the peptide-pulsed adherent cells. Twenty four hours later rhuman IL10 was added at a final concentration of 10 ng/ml and rhuman IL2 was added the next day and again 2-3 days later at 50 IU/ml (Tsai et al., Critical Reviews in Immunology 18(l-2):65-75, 1998). Seven days later the cultures were assayed for CTL activity in a ^51Cr release assay. In some experiments the cultures were assayed for peptide-specific recognition in the in situ IFNγ ELISA at the time of the second restimulation followed by assay of endogenous recognition 7 days later. After expansion, activity was measured in both assays for a side by side comparison. […]

[3] = tested on: melanoma cell lines (624 mel and 888 mel); experiment: Primary CTL induction, 51Cr release on tumor targets (endogenous recognition); format: cell-based, human; settings: number of donors positive over total tested; tumor targets
Description: as §1
Restimulation of the induction cultures with peptide-pulsed adherent cells: Seven and fourteen days after the primary induction the cells were restimulated with peptide-pulsed adherent cells. The PBMCS were thawed and washed twice with RPMI and DNAse. The cells were resuspended at 5×10^6 cells/ml and irradiated at ˜4200 rads. The PBMCs were plated at 2×10^6 in 0.5 ml complete medium per well and incubated for 2 hours at 37° C. The plates were washed twice with RPMI by tapping the plate gently to remove the nonadherent cells and the adherent cells pulsed with 10 μg/ml of peptide in the presence of 3 μg/ml β2 microglobulin in 0.25 ml RPMI/5% AB per well for 2 hours at 37° C. Peptide solution from each well was aspirated and the wells were washed once with RPMI. Most of the media was aspirated from the induction cultures (CD8+ cells) and brought to 0.5 ml with fresh media. The cells were then transferred to the wells containing the peptide-pulsed adherent cells. Twenty four hours later rhuman IL10 was added at a final concentration of 10 ng/ml and rhuman IL2 was added the next day and again 2-3 days later at 50 IU/ml (Tsai et al., Critical Reviews in Immunology 18(l-2):65-75, 1998). Seven days later the cultures were assayed for CTL activity in a ^51Cr release assay. In some experiments the cultures were assayed for peptide-specific recognition in the in situ IFNγ ELISA at the time of the second restimulation followed by assay of endogenous recognition 7 days later. After expansion, activity was measured in both assays for a side by side comparison.
Seven days after the second restimulation, cytotoxicity was determined in a standard (5 hr) ^51Cr release assay by assaying individual wells at a single E:T. Peptide-pulsed targets were prepared by incubating the cells with 10 μg/ml peptide overnight at 37° C.
Adherent target cells were removed from culture flasks with trypsin-EDTA. Target cells were labelled with 200 μCi of ^51Cr sodium chromate (Dupont, Wilmington, Del.) for 1 hour at 37° C. […] Target cells.(100 μl) and 100 μl of effectors were plated in 96 well round-bottom plates and incubated for 5 hours at 37° C. At that time, 100 μl of supernatant were collected from each well and percent lysis was determined according to the formula: [(cpm of the test sample−cpm of the spontaneous ^51Cr release sample)/(cpm of the maximal ^51Cr release sample−cpm of the spontaneous ^51Cr release sample)]×100. Maximum and spontaneous release were determined by incubating the labelled targets with 1% Trition X-100 and media alone, respectively.
CTL Expansion. […] The cells were split if the cell concentration exceeded 1×10^6/ml and the cultures were assayed between days 13 and 15 at E:T ratios of 30, 10, 3 and 1:1 in the ^51Cr release assay or at 1×10^6/ml in the in situ IFNγ assay using the same targets as before the expansion.
The A2-supermotif cross-reactive binding peptides that were selected for further evaluation were tested in the cellular assay for the ability to induce peptide-specific CTL in normal individuals.

Structure (SMILES): CC[C@H](C)[C@H](NC(=O)[C@H](CC(C)C)NC(=O)[C@H](C)N)C(=O)N[C@@H](CCC(=O)O)C(=O)N[C@H](C(=O)N[C@@H](CO)C(=O)N[C@@H](Cc1ccc(O)cc1)C(=O)N[C@H](C(=O)N[C@@H](CCCCN)C(=O)N[C@H](C(=O)O)C(C)C)C(C)C)[C@@H](C)O
- IC50 (HLA-A*0202): 729 nM
- IC50 (HLA-A*0203): 125 nM
- IC50 (HLA-A*0206): 1950 nM
- IC50 (HLA-A*6802): 3080 nM

Structure (SMILES): CC[C@H](C)[C@H](NC(=O)[C@@H](NC(=O)[C@@H](N)[C@@H](C)O)[C@@H](C)O)C(=O)N[C@@H](CC(N)=O)C(=O)N[C@@H](Cc1ccc(O)cc1)C(=O)N[C@H](C(=O)N[C@@H](CC(C)C)C(=O)N[C@@H](Cc1c[nH]c2ccccc12)C(=O)N[C@@H](CCCNC(=N)N)C(=O)O)[C@@H](C)O
- CTL Tumor ([1]; CTL recognition of tumor targets): 2/5
- CTL Wild-type ([1]; CTL recognition of wild-type peptide): 7/7

Structure (SMILES): CC(C)C[C@H](NC(=O)[C@H](Cc1ccccc1)NC(=O)[C@H](Cc1c[nH]cn1)NC(=O)[C@@H](NC(=O)[C@H](CC(C)C)NC(=O)[C@H](CCC(=O)O)NC(=O)[C@H](C)NC(=O)[C@H](CC(C)C)NC(=O)[C@@H](N)CCCCN)C(C)C)C(=O)O
- IC50 (HLA-A*0201): 20 nM
- IC50 (HLA-A*0202): 6 nM
- IC50 (HLA-A*0203): 5.9 nM
- IC50 (HLA-A*6802): 400 nM

Structure (SMILES): CSCC[C@H](NC(=O)[C@@H](N)CCCCN)C(=O)N[C@@H](C)C(=O)N[C@@H](CCC(=O)O)C(=O)N[C@@H](CC(C)C)C(=O)N[C@H](C(=O)N[C@@H](Cc1c[nH]cn1)C(=O)N[C@@H](Cc1ccccc1)C(=O)N[C@H](C(=O)O)C(C)C)C(C)C
- IC50 (HLA-A*0201): 26 nM
- IC50 (HLA-A*0206): 39 nM
- IC50 (HLA-A*6802): 170 nM

Structure (SMILES): CSCC[C@H](NC(=O)[C@@H](N)CCCCN)C(=O)N[C@@H](C)C(=O)N[C@@H](CCC(=O)O)C(=O)N[C@@H](CC(C)C)C(=O)N[C@H](C(=O)N[C@@H](Cc1c[nH]cn1)C(=O)N[C@@H](Cc1ccccc1)C(=O)N[C@@H](CC(C)C)C(=O)O)C(C)C
- IC50 (HLA-A*0201): 24 nM
- IC50 (HLA-A*0202): 6.7 nM
- IC50 (HLA-A*0206): 26 nM
- IC50 (HLA-A*6802): 286 nM

Structure (SMILES): CC[C@H](C)[C@H](NC(=O)[C@H](Cc1ccc(O)cc1)NC(=O)[C@H](CC(C)C)NC(=O)[C@@H](N)Cc1c[nH]cn1)C(=O)N[C@@H](Cc1ccccc1)C(=O)N[C@@H](C)C(=O)N[C@H](C(=O)N[C@@H](CS)C(=O)N[C@@H](CC(C)C)C(=O)NCC(=O)N[C@@H](CC(C)C)C(=O)O)[C@@H](C)O
- IC50 (HLA-A*0201): 56 nM
- IC50 (HLA-A*0203): 769 nM
- IC50 (HLA-A*0206): > 10000 nM
- IC50 (HLA-A*6802): 4490 nM

Structure (SMILES): CC[C@H](C)[C@H](NC(=O)[C@@H](N)CCCCN)C(=O)N[C@@H](Cc1c[nH]c2ccccc12)C(=O)N[C@@H](CCC(=O)O)C(=O)N[C@@H](CCC(=O)O)C(=O)N[C@@H](CC(C)C)C(=O)N[C@@H](CO)C(=O)N[C@@H](CCSC)C(=O)N[C@@H](CC(C)C)C(=O)O
- IC50 (HLA-A*0201): 167 nM
- IC50 (HLA-A*0202): 642 nM
- IC50 (HLA-A*0203): 175 nM
- IC50 (HLA-A*6802): > 10000 nM

Structure (SMILES): CSCC[C@H](NC(=O)[C@@H](N)CCCCN)C(=O)N[C@H](C(=O)N[C@@H](CCC(=O)O)C(=O)N[C@@H](CC(C)C)C(=O)N[C@H](C(=O)N[C@@H](Cc1c[nH]cn1)C(=O)N[C@@H](Cc1ccccc1)C(=O)N[C@@H](CC(C)C)C(=O)O)C(C)C)C(C)C
- CTL Wild-type [2]: 1/1
- CTL Tumor [3]: 0/1^

Structure (SMILES): CC(C)C[C@H](NC(=O)[C@H](CCC(=O)O)NC(=O)[C@H](C)NC(=O)[C@H](CC(C)C)NC(=O)[C@@H](N)CCCCN)C(=O)N[C@H](C(=O)N[C@@H](Cc1c[nH]cn1)C(=O)N[C@@H](Cc1ccccc1)C(=O)N[C@H](C(=O)O)C(C)C)C(C)C
- IC50 (HLA-A*0202): 13 nM
- IC50 (HLA-A*0203): 22 nM
- IC50 (HLA-A*0206): 15 nM
- IC50 (HLA-A*6802): 73 nM
